# Source: patent US10301344B2, “L-proline complex of sodium-glucose cotransporter 2 inhibitor, monohydrate and crystal form thereof” (Jiangsu Hengrui Medicine Co., Ltd., priority 2014, dated 2019)
# Test: Development form properties of the free compound and the complex (hygroscopicity, stability)
"hygroscopic properties (free compound, background statement)",Compound,stability in comparison to the free compound
,"1,6-anhydro-1-C-{4-chloro-3-[(3-fluoro-4-ethoxyphenyl)methyl]phenyl}-5-C-(hydroxymethyl)-β-L-idopyranose L-proline complex [complex of formula (I)]",improved stability
hygroscopic,"CCOc1ccc(Cc2cc(C34OC[C@](CO)(O3)C(O)[C@H](O)C4O)ccc2Cl)cc1F (stereo in doubt) [1,6-anhydro-1-C-{4-chloro-3-[(3-fluoro-4-ethoxyphenyl)methyl]phenyl}-5-C-(hydroxymethyl)-β-L-idopyranose]",
